Laboratory results as given in US11795177B2, “Substituted quinoline analogs as aldehyde dehydrogenase 1A1 (ALDH1A1) inhibitors” (THE UNITED STATES OF AMERICA, AS REPRESENTED BY THE …, priority 2017, dated 2023).
Counter-ions that a name gives are not always drawn. Like-named read-outs stand apart in the source and are kept apart here.

Assays:
ALDH1A1 enzyme = target: T1, ALDH1A1 enzyme (Homo sapiens, UniProt P00352); assay: ALDH1A1 enzymatic assay (in vitro); assay type: biochemical
T1 sequence (P00352 1-501): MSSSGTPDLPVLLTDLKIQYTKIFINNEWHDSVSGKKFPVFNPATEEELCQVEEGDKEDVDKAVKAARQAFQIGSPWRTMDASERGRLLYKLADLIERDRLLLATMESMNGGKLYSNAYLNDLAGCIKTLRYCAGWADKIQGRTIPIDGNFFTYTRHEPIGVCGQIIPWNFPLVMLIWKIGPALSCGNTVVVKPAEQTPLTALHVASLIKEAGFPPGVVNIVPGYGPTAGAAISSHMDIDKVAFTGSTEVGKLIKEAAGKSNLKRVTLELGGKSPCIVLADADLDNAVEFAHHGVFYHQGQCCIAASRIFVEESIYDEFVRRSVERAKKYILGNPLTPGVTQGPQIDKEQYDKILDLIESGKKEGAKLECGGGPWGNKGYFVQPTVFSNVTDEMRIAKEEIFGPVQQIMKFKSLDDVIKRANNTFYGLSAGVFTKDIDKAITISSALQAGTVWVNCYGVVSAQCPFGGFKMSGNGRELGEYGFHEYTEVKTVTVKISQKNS
Summary of the method: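 ALDH1A1 (20 nM final) in 100 mM HEPES pH 7.5, 0.01% Tween 20 was preincubated 15 min at RT with compound (968 pM–57.2 μM final), then started with 1 mM NAD+ and 80 μM propionaldehyde. NADH fluorescence (ex 340/em 450 nm) followed kinetically for 10 min; change normalized to no-inhibitor and no-enzyme controls for percent inhibition and curve fitting.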

MIA PaCa-2 cells = assay: MIA PaCa2 cell-based assay (1,536-well high-content imaging ALDEFLUOR assay); parameters: species or system human; conditions: Homo sapiens, 0.5 h, ALDEFLUOR BAAA substrate 500 nM, 30 minutes
Summary of the method: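 MIA PaCa-2 cells (1,000/well), plated overnight, given BAAA substrate (500 nM) plus Hoechst 33342 (0.5 nM), then compound (16-point, 1.4 nM–47.8 μM final; 0.5% DMSO). After 30 min at 37° C, ALDH activity imaged by high-content microscopy as BAA-retaining (FITC) cells versus Hoechst-stained nuclei.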

[1] = ALDH1A1 enzyme 20 nM, NAD+ 1 mM, propionaldehyde 80 μM, read-out: ALDH1A1 IC50

| SMILES | IC50 (ALDH1A1 enzyme; [1]) [nM] | IC50 (MIA PaCa-2 cells) [µM] | IC50 (ALDH1A1 enzyme) [nM] |
| --- | --- | --- | --- |
| COc1ccc2ncc(C(=O)N3CCN(C(=O)C4CC4)CC3)c(N3CCS(=O)(=O)CC3)c2c1 [Example 29, (4-(cyclopropanecarbonyl)piperazin-1-yl)(4-(1,1-dioxidothiomorpholino)-6-methoxyquinolin-3-yl)methanone] | > 10000 | > 10 | – |
| CC1(C#N)CCN(c2c(C(=O)N3CCN(S(=O)(=O)C4CC4)CC3)cnc3ccccc23)CC1 [Example 98, 1-(3-(4-(cyclopropylsulfonyl)piperazine-1-carbonyl)quinolin-4-yl)-4-methylpiperidine-4-carbonitrile] | 1000 to 10000 | > 10 | – |
| O=C(c1cnc2ccc(F)cc2c1N1CCC2(CC1)OCCO2)N1CCS(=O)(=O)CC1 [Example 53, (1,1-dioxidothiomorpholino)(6-fluoro-4-(1,4-dioxa-8-azaspiro[4.5]decan-8-yl)quinolin-3-yl)methanone] | 500 to 1000 | > 10 | – |
| N#CC1(c2ccccc2F)CCN(c2c(C(=O)N3CCN(C(=O)C4CC4)CC3)cnc3ccc(F)cc23)CC1 [Example 276, 1-(3-(4-(cyclopropanecareonyl)piperazine-1-carbonyl)-6-fluoroquinolin-4-yl)-4-(2-fluorophenyl)piperidine-4-carbonitrile] | < 500 | < 0.5 | – |
| CCN(CC)C(=O)N1CCN(C(=O)c2cnc3cc(F)c(F)cc3c2N2CCC(C)(C#N)CC2)CC1 [Example 174, 4-(4-(4-cyano-4-methylpiperidin-1-yl)-6,7-difluoroquinoline-3-carbonyl)-N,N-diethylpiperazine-1-carboxamide] | 500 to 1000 | 1 to 10 | – |
| N#CC1(c2ccc(-c3c(C(=O)N4CC(O)C4)cnc4ccc(F)cc34)cc2)CC1 [Cpd. 334, 1-(4-(6-fluoro-3-(3-hydroxyazetidine-1-carbonyl)quinolin-4-yl)phenyl)cyclopropane-1-carbonitrile] | 1000 to 10000 | > 10 | – |
| CCS(=O)(=O)N1CCN(C(=O)c2cnc3c(F)cc(F)cc3c2N2CCC3(CC2)OCCO3)CC1 [Example 161, (6,8-difluoro-4-(1,4-dioxa-8-azaspiro[4.5]decan-8-yl)quinolin-3-yl)(4-(ethylsulfonyl)piperazin-1-yl)methanone] | < 500 | 1 to 10 | – |
| CN(C)S(=O)(=O)N1CCN(C(=O)c2cnc3ccsc3c2-c2ccc(C3(C#N)CC3)cc2)CC1 [Example 284, 4-(7-(4-(1-cyanocyclopropyl)phenyl)thieno[3,2-b]pyridine-6-carbonyl)-N,N-dimethylpiperazine-1-sulfonamide] | < 500 | < 0.5 | – |
| CCC(=O)N1CCN(C(=O)c2cnc3cc(OC)ccc3c2N2CCC(C)(C#N)CC2)CC1 [Example 102, 1-(7-methoxy-3-(4-propionylpiperazine-1-carbonyl)quinolin-4-yl)-4-methylpiperidine-4-carbonitrile] | < 500 | 1 to 10 | – |
| C[C@@H]1CN(C(=O)c2cnc3ccc(F)cc3c2N2CCC(C)(C#N)CC2)C[C@H](C)N1S(C)(=O)=O [Example 225, 1-(3-((3R*,5S*)-3,5-dimethyl-4-(methylsulfonyl)piperazine-1-carbonyl)-6-fluoroquinolin-4-yl)-4-methylpiperidine-4-carbonitrile] | 1000 to 10000 | > 10 | – |
| O=C(c1cnc2ccc(F)cc2c1N1CCC2(CC1)COC2)N1CCN(C(=O)C2CC2)CC1 [Example 68, (4-(cyclopropanecarbonyl)piperazin-1-yl)(6-fluoro-4-(2-oxa-7-azaspiro[3.5]nonan-7-yl)quinolin-3-yl)methanone] | 1000 to 10000 | > 10 | – |
| CS(=O)(=O)C1CCN(C(=O)c2cnc3ccc(F)cc3c2N2CCC(C#N)(c3ccccc3)CC2)CC1 [Example 269, 1-(6-fluoro-3-(4-(methylsulfonyl)piperidine-1-carbonyl)quinolin-4-yl)-4-phenylpiperidine-4-carbonitrile] | < 500 | < 0.5 | – |
| CS(=O)(=O)C1CCN(C(=O)c2cnc3ccc(Cl)cc3c2-c2ccc(C3(C#N)CC3)cc2)CC1 [Example 295, 1-(4-(6-chloro-3-(4-(methylsulfonyl)piperidine-1-carbonyl)quinolin-4-yl)phenyl)cyclopropanecarbonitrile] | < 500 | < 0.5 | – |
| COc1ccc2ncc(C(=O)N3CCC4(CC3)OCCO4)c(N3CCC4(CC3)OCCO4)c2c1 [Example 37, (6-methoxy-4-(1,4-dioxa-8-azaspiro[4.5]decan-8-yl)quinolin-3-yl)(1,4-dioxa-8-azaspiro[4.5]decan-8-yl)methanone] | – | 0.5 to 1 | < 500 |
| O=C(c1cnc2cc(F)c(F)cc2c1N1CCC2(CC1)OCCO2)N1CCN(S(=O)(=O)N2CCCC2)CC1 [Example 173, (6,7-difluoro-4-(1,4-dioxa-8-azaspiro[4.5]decan-8-yl)quinolin-3-yl)(4-(pyrrolidin-1-ylsulfonyl)piperazin-1-yl)methanone] | < 500 | > 10 | – |
| CC(=O)C1(c2ccccc2)CCN(c2c(C(=O)N3CCN(C(=O)N(C)C)CC3)cnc3ccc(F)cc23)CC1 [Example 271, 4-(4-(4-acetyl-4-phenylpiperidin-1-yl)-6-fluoroquinoline-3-carbonyl)-N,N-dimethylpiperazine-1-carboxamide] | < 500 | < 0.5 | – |
| Cn1ncc2c(N3CCC(C)(C#N)CC3)c(C(=O)N3CCN(C(=O)C4CC4)CC3)cnc21 [Example 205, 1-(5-(4-(cyclopropanecarbonyl)piperazine-1-carbonyl)-1-methyl-1H-pyrazolo[3,4-b]pyridin-4-yl)-4-methylpiperidine-4-carbonitrile] | < 500 | 1 to 10 | – |
| CN(C)C(=O)N1CCN(C(=O)c2cnc3c(F)cc(F)cc3c2N2CCC(C)(C#N)CC2)CC1 [Example 183, 4-(4-(4-cyano-4-methylpiperidin-1-yl)-6,8-difluoroquinoline-3-carbonyl)-N,N-dimethylpiperazine-1-carboxamide] | < 500 | 1 to 10 | – |
| COc1ccc2c(N3CCC4(CC3)OCCO4)c(C(=O)N3CCN(S(C)(=O)=O)CC3)cnc2c1 [Example 129, (7-methoxy-4-(1,4-dioxa-8-azaspiro[4.5]decan-8-yl)quinolin-3-yl)(4-(methylsulfonyl)piperazin-1-yl)methanone] | < 500 | 1 to 10 | – |
| CCS(=O)(=O)N1CCN(C(=O)c2cnc3cc(F)c(F)cc3c2N2CCC(C)(C#N)CC2)CC1 [Example 176, 1-(3-(4-(ethylsulfonyl)piperazine-1-carbonyl)-6,7-difluoroquinolin-4-yl)-4-methylpiperidine-4-carbonitrile] | < 500 | 1 to 10 | – |
| CC1(C#N)CCN(c2c(C(=O)N3CCN(S(=O)(=O)N4CCCC4)CC3)cnc3cc(F)c(F)cc23)CC1 [Example 178, 1-(6,7-difluoro-3-(4-(pyrrolidin-1-ylsulfonyl)piperazine-1-carbonyl)quinolin-4-yl)-4-methylpiperidine-4-carbonitrile] | 1000 to 10000 | > 10 | – |
| COc1ccc2ncc(C(=O)N3CCN(c4cccnc4)CC3)c(N3CCC4(CC3)OCCO4)c2c1 [Example 14, (6-methoxy-4-(1,4-dioxa-8-azaspiro[4.5]decan-8-yl)quinolin-3-yl)(4-(pyridin-3-yl)piperazin-1-yl)methanone, TFA] | < 500 | > 10 | – |
| COc1ccc2ncc(C(=O)N3C[C@@H](C)O[C@@H](C)C3)c(N3CCC4(CC3)OCCO4)c2c1 [Example 33, ((2S*,6R*)-2,6-dimethylmorpholino)(6-methoxy-4-(1,4-dioxa-8-azaspiro[4.5]decan-8-yl)quinolin-3-yl)methanone] | 1000 to 10000 | > 10 | – |
| C[C@@H]1CN(S(C)(=O)=O)CCN1C(=O)c1cnc2ccc(F)cc2c1N1CCC(C)(C#N)CC1 [Example 241, (R)-1-(6-fluoro-3-(2-methyl-4-(methylsulfonyl)piperazine-1-carbonyl)quinolin-4-yl)-4-methylpiperidine-4-carbonitrile] | 1000 to 10000 | > 10 | – |
| COc1ccc2ncc(C(=O)N3CCN(C(=O)C(C)C)CC3)c(N3CCC4(CC3)OCCO4)c2c1 [Example 5, 1-(4-(6-methoxy-4-(1,4-dioxa-8-azaspiro[4.5]decan-8-yl)quinoline-3-carbonyl)piperazin-1-yl)-2-methylpropan-1-one, TFA] | < 500 | > 10 | – |
| COc1ccc2ncc(C(=O)N3CCN(C(=O)C4CC4)CC3)c(N3CCC(C)(C)CC3)c2c1 [Example 18, (4-(cyclopropanecarbonyl)piperazin-1-yl)(4-(4,4-dimethylpiperidin-1-yl)-6-methoxyquinolin-3-yl)methanone, TFA] | < 500 | 1 to 10 | – |
